Consider 14 compounds from patent publication US20240279174A1, “ANTIBIOTICS COMPRISING LPXH-TARGETING COMPOUNDS AND METHODS OF MAKING AND USING THE SAME” (Duke University, priority 2019, published 2024).

In one experiment the test system is WT K. pneumoniae. The settings on record: cited from earlier work.
Experiment [1] concerns E. coli strains with a compromised outer membrane (yhjD*ΔkdtA) or with an efflux pump deletion (ΔtolC). The settings on record: cited from earlier work.
The target in experiment [2] is T1, K. pneumoniae LpxH (KpLpxH) (Klebsiella pneumoniae subsp. pneumoniae (strain ATCC 700721 / MGH 78578), UniProt A6T5R0). The experiment in a line: LpxE-coupled malachite green LpxH activity assay (KpLpxH inhibition). In kind it is biochemical. The settings on record: for remaining activity at 0.1 µM / inhibition at 0.1 µM: 0.1 μM inhibitor; for remaining activity at 0.1 µM: normalized against KpLpxH activity in 10% DMSO, read-out: Percentage Activity of KpLpxH (vi/v0); for inhibition at 0.1 µM: read-out: Percentage Inhibition of KpLpxH; for IC50: Table 5, read-out: IC50: Average. The procedure: Evaluation of LpxH inhibition by analogs: After completing the synthesis of sulfonyl piperazine compounds with various forms of linkers, the KpLpxH inhibition was biochemically characterized by these analogs at 0.1 μM using the nonradioactive, colorimetric malachite green assay that we had previously reported. […] Such an enhanced potency requires the presence of the hydroxamate group, as its substitution with a carboxylate group in compound 7 reduced the compound activity (vi/v0=30±6%).
The LpxE-coupled LpxH activity assay was conducted as described previously using the GB1-K. pneumoniae LpxH-His10 fusion protein. Briefly, two reaction mixtures were prepared. Mixture 1 contains 20 mM Tris-HCl (pH 8.0), 0.5 mg/mL BSA, 0.02% Triton X-100, 1 mM MnCl2, 1 mM DTT, 10% DMSO, and 200 µM substrate (UDP-DAGn), and mixture 2 is comprised of the same buffer, but instead of substrate, contains both LpxH (20 ng/ml) and 2× inhibitor. These mixtures were then pre-incubated at 37° C. for 10 min. To initiate the reaction, an equal volume of the LpxH mixture (mixture 2) was added to the substrate mixture (mixture 1) at 37° C. The final reaction solution contains 100 μM substrate, 10 ng/ml enzyme, and 1× inhibitor. At the desired reaction time points, an aliquot of 20 μL reaction mixture was removed and added to a well in 96-well half-area plate containing 5 mM EDTA (final concentration) to quench the LpxH reaction. Purified Aquifex aeolicus LpxE was then added to a final concentration of 5 μg/mL. The plate was incubated at 37° C. for 30 min followed by addition of formic acid to a final concentration of 3.75 M to quench the LpxE reaction. The malachite green reagent (Sigma Aldrich, catalog MAK307) was diluted 5-fold into the solutions, and the plate was incubated for 30 min at room temperature before the absorbance at 620 nm was measured. All measurements were done in triplicates, and standard error (S.E.) was calculated.

For experiment [3], the system named is K. pneumoniae (ATCC 10031). The experiment in a line: MIC assay (broth microdilution), K. pneumoniae. The settings on record: Klebsiella pneumoniae, ATCC10031. It is filed as cell-based. The method, then: (§1) The MIC assay protocol was adapted from the broth microdilution methods described by the National Committee for Clinical Laboratory Standards using 96-well plates as described previously. In brief, overnight bacterial cultures were diluted to an OD600 of 0.006 in cation-adjusted Mueller-Hinton medium containing 7% DMSO and incubated at 37° C. for 22 h in the presence of varying concentrations of inhibitors. Following overnight incubation, each well is treated with 10 μL of 3-(4,5-dimethylthiazol-2-yl)-2,5-diphenyltetrazolium bromide (MTT, 5 mg/mL) for 3 h. Finally, the culture is solubilized by addition of 2-propanol, and the results are read by taking the difference of the UV reading at both 570 and 690 nm. MIC values were reported as the lowest compound concentration that inhibited bacterial growth. The baseline for inhibited cell growth was determined to be <4× the average control reading due to the baseline optical density of the initial starting bacterial culture.

For experiment [4], the target named is T1, K. pneumoniae LpxH (KpLpxH). The settings on record: previously reported value for 2; read-out: KI of KpLpxH inhibition (reported value); cited from earlier work.
The subject of another experiment is E. coli W3110. The experiment in a line: MIC assay (broth microdilution), E. coli. It is filed as cell-based. The settings on record: Escherichia coli, Table 4. The method, then: as §1
(In general: Broth dilution looks for growth in wells or tubes with falling amounts of substance.)

[5] abbreviates: K. pneumoniae (ATCC 10031), in vitro, read-out: MIC.
Setting [6] is: Table 4, read-out: MIC - K. pneumoniae (ATCC 10031).

≈ marks a conversion by molar mass, not a printed value. Where two headings read alike, the source gives them in different places.

Regarding `CC(=O)N1CCc2cc(S(=O)(=O)N3CCN(c4cccc(C(F)(F)F)c4)CC3)ccc21` [AZ1, reference compound], the antibiotic activity result (in the experiment on WT K. pneumoniae; in experiment [1]) was “weak antibiotic activity” in each case. Also, the remaining activity at 0.1 µM in experiment [2] was found to be 78%. Also, the inhibition at 0.1 µM in experiment [2] is 22%. Further, the MIC in experiment [3] (setting [5]) and in experiment [3] (setting [6]) was over 64 µg/mL in each case.
Regarding `CC(=O)N1CCc2cc(S(=O)(=O)N3CCN(c4cc(Cl)cc(C(F)(F)F)c4)CC3)ccc21` [JH-LPH-33], the Ki in experiment [4] is 10 nM. For the same compound, in experiment [2], the remaining activity at 0.1 µM stood at 21%, the inhibition at 0.1 µM was determined as 79% and the half-inhibitory concentration (IC50) turned out to be 104 nM. Further, the MIC in experiment [3] (setting [5]) worked out at 0.83 µg/mL (≈ 1.7 µM). Also, in experiment [3] (setting [6]), the minimal inhibitory concentration (MIC) worked out at 0.83 µg/mL (≈ 1.7 µM).
As to `O=C(CCCCCCC(=O)Nc1ccc(S(=O)(=O)N2CCN(c3cc(Cl)cc(C(F)(F)F)c3)CC2)cc1)NO` [JH-LPH-65], the IC50 in experiment [2] stood at 13 nM. In addition, in experiment [3] (setting [6]), the MIC came to 12 µg/mL (≈ 20.3 µM).
For `O=C(CN1CCOCC1)Nc1ccc(S(=O)(=O)N2CCN(c3cc(Cl)cc(C(F)(F)F)c3)CC2)cc1` [JH-LPH-69] the same measures were 79 nM and 4 µg/mL (≈ 7.31 µM).
For `O=C(CN1CCOCC1)N1CCc2cc(S(=O)(=O)N3CCN(c4cc(Cl)cc(C(F)(F)F)c4)CC3)ccc21` [JH-LPH-70] the same measures were 62 nM and 10.7 µg/mL (≈ 18.6 µM).
For `NC(=O)N1CCc2cc(S(=O)(=O)N3CCN(c4cc(Cl)cc(C(F)(F)F)c4)CC3)ccc21` [JH-LPH-73] the same measures were 37 nM and 0.67 µg/mL (≈ 1.37 µM).
Turning to `NC(=O)N1CCc2cc(S(=O)(=O)N3CCN(c4cc(C(F)(F)F)ccn4)CC3)ccc21` [JH-LPH-91], the IC50 in experiment [2] was determined as 105 nM. Also, the MIC in experiment [3] (setting [6]) is 0.125 µg/mL (≈ 0.274 µM).
For `CC(=O)N1CCc2cc(S(=O)(=O)N3CCN(c4cc(C(F)(F)F)cc(Cl)n4)CC3)ccc21` [JH-LPH-92], in that order: 5 nM and 0.063 µg/mL (≈ 0.129 µM).
As for `CC(=O)N1CCc2cc(S(=O)(=O)N3CCN(c4nccc(C(F)(F)F)n4)CC3)ccc21` [JH-LPH-93], the IC50 in experiment [2] stood at 32 nM. The MIC in experiment [3] (setting [6]) is 1.33 µg/mL (≈ 2.92 µM).
For `O=C(CCCCNC(=O)N1CCc2cc(S(=O)(=O)N3CCN(c4cc(C(F)(F)F)cc(Cl)n4)CC3)ccc21)NO` [JH-LPH-96], in that order: 2 nM and 0.83 µg/mL (≈ 1.37 µM).
With `O=C(CCCCCNC(=O)Nc1ccc(S(=O)(=O)N2CCN(c3cc(C(F)(F)F)cc(Cl)n3)CC2)cc1)NO` [JH-LPH-104], in experiment [2], the IC50 came to 0.23 nM. The MIC was 16 µg/mL (≈ 27 µM) against E. coli W3110 and 1 µg/mL (≈ 1.69 µM) in experiment [3] (setting [6]).
Turning to `CN(c1ccccc1C(=O)Nc1ccc(S(=O)(=O)N2CCN(c3cc(Cl)cc(Cl)c3)CC2)cc1)S(C)(=O)=O` [JH-LPH-105], the MIC with E. coli W3110 was 2 µg/mL (≈ 3.35 µM); in experiment [3] (setting [6]), 0.3 µg/mL (≈ 0.502 µM).
As to `CN(c1ccccc1C(=O)N1CCc2cc(S(=O)(=O)N3CCN(c4cc(C(F)(F)F)cc(Cl)n4)CC3)ccc21)S(C)(=O)=O` [JH-LPH-106], the MIC with E. coli W3110 stood at 1.7 µg/mL (≈ 2.58 µM).
Consider `CN(c1ccccc1C(=O)Nc1ccc(S(=O)(=O)N2CCN(c3cc(C(F)(F)F)cc(Cl)n3)CC2)cc1)S(C)(=O)=O` [JH-LPH-107], for which the MIC with E. coli W3110 turned out to be 1 µg/mL (≈ 1.58 µM); in experiment [3] (setting [6]), 0.04 µg/mL (≈ 0.0633 µM).

As a reminder, the inhibition is the relative decrease from the control value, in per cent. In general, MIC refers to the lowest concentration that inhibits growth of the organism. As a reminder, the Ki is a dissociation constant, usually derived from enzyme kinetics or from competition with a known ligand. As a reminder, the IC50 is the point on the concentration scale where inhibition reaches its midpoint.
